Measurements: patent US8680012B2, “4-phenyl-pyrane-3,5-diones,4-phenyl-thiopyrane-3,6-diones and cyclohexanetriones as novel herbicides” (Syngenta Crop Protection LLC, priority 2006, dated 2014)

Key:
Type in all cases: in vivo
[1] = tested on: Setaria faberi (SETFA); test: Example B post-emergence herbicidal activity, glasshouse pot test; settings: 312 h, rate 250 g/ha, evaluated after 13 days, read-out: Post-emergence activity SETFA (100=total damage to plant; 0=no damage to plant)
Method in brief: (§1)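 One day (pre) or eight days (post) after sowing, pots received a spray of test compound formulated in acetone/water 50:50 with 0.5% Tween 20; plants were then kept under controlled glasshouse conditions with watering twice daily and assessed for damage (0–100) at 13 days.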

[2] = tested on: Avena fatua (AVEFA); test: as above; settings: 312 h, rate 250 g/ha, evaluated after 13 days, read-out: Post-emergence activity AVEFA (100=total damage to plant; 0=no damage to plant)
Method in brief: as §1

[3] = tested on: Echinochloa crus-galli (ECHCG); test: as above; settings: 312 h, rate 250 g/ha, evaluated after 13 days, read-out: Post-emergence activity ECHCG (100=total damage to plant; 0=no damage to plant)
Method in brief: as §1

[4] = tested on: Alopecurus myosuroides (ALOMY); test: as above; settings: 312 h, rate 250 g/ha, evaluated after 13 days, read-out: Post-emergence activity ALOMY (100=total damage to plant; 0=no damage to plant)
Method in brief: as §1

[5] = tested on: Amaranthus retroflexus (AMARE); test: as above; settings: 312 h, rate 250 g/ha, evaluated after 13 days, read-out: Post-emergence activity AMARE (100=total damage to plant; 0=no damage to plant)
Method in brief: as §1

[6] = tested on: Setaria faberi (SETFA); test: Example B pre-emergence herbicidal activity, glasshouse pot test; settings: 312 h, rate 250 g/ha, evaluated after 13 days, read-out: Pre-emergence activity SETFA (100=total damage to plant; 0=no damage to plant)
Method in brief: as §1

[7] = tested on: Avena fatua (AVEFA); test: as above; settings: 312 h, rate 250 g/ha, evaluated after 13 days, read-out: Pre-emergence activity AVEFA (100=total damage to plant; 0=no damage to plant)
Method in brief: as §1

[8] = tested on: Echinochloa crus-galli (ECHCG); test: as above; settings: 312 h, rate 250 g/ha, evaluated after 13 days, read-out: Pre-emergence activity ECHCG (100=total damage to plant; 0=no damage to plant)
Method in brief: as §1

[9] = tested on: Alopecurus myosuroides (ALOMY); test: as above; settings: 312 h, rate 250 g/ha, evaluated after 13 days, read-out: Pre-emergence activity ALOMY (100=total damage to plant; 0=no damage to plant)
Method in brief: as §1

[10] = tested on: Amaranthus retroflexus (AMARE); test: as above; settings: 312 h, rate 250 g/ha, evaluated after 13 days, read-out: Pre-emergence activity AMARE (100=total damage to plant; 0=no damage to plant)
Method in brief: as §1

SMILES	pest or weed control at 250 g/ha [1]	pest or weed control at 250 g/ha [2]	pest or weed control at 250 g/ha [3]	pest or weed control at 250 g/ha [4]	pest or weed control at 250 g/ha [5]	pest or weed control at 250 g/ha [6]	pest or weed control at 250 g/ha [7]	pest or weed control at 250 g/ha [8]	pest or weed control at 250 g/ha [9]	pest or weed control at 250 g/ha [10]
COc1ccc(-c2ccc(Cl)c(F)c2)cc1C1=C(O)C(C)(C)OC(C)(C)C1=O [Compound A-96]	90%	30%	100%	50%	0%	0%	0%	0%	0%	0%
Cc1cc(C)c(-c2ccc(Cl)c(F)c2)c(C)c1C1=C(O)C(C)(C)OC(C)(C)C1=O [Compound A-97]	70%	30%	90%	40%	0%	60%	0%	50%	0%	0%
C#Cc1ccc(-c2ccc(CC)c(C3=C(O)C(C)(C)OC(C)(C)C3=O)c2)cc1 [Compound A-98]	100%	70%	100%	50%	30%	90%	0%	90%	0%	50%
CCc1ccc(-c2ccc(Cl)cc2C#N)cc1C1=C(O)C(C)(C)OC(C)(C)C1=O [Compound A-100]	100%	90%	100%	90%	0%	100%	90%	80%	20%	60%
CCc1ccc(-c2ccc(I)cc2)cc1C1=C(O)C(C)(C)OC(C)(C)C1=O [Compound A-101]	100%	100%	100%	100%	0%	100%	100%	100%	70%	0%
Cc1cc(C)c(-c2ccc(Cl)cc2F)c(C)c1C1=C(O)C(C)(C)OC(C)(C)C1=O [Compound A-102]	30%	0%	70%	20%	0%	90%	0%	90%	30%	0%
COc1ccc(-c2ccc(Cl)cc2F)cc1C1=C(O)C(C)(C)OC(C)(C)C1=O [Compound A-103]	100%	0%	100%	10%	0%	0%	0%	0%	0%	0%
CCc1ccc(-c2ccc(Cl)cc2)cc1C1=C(O)[C@]2(C)O[C@@H](CC2COC)C1=O (some centres unmarked) [Compound A-122]	100%	50%	100%	80%	40%	100%	100%	90%	40%	0%
CCc1ccc(-c2ccc(Cl)c(F)c2)cc1C1=C(O)[C@]2(C)O[C@@H](CC2COC)C1=O (some centres unmarked) [Compound A-127]	100%	40%	100%	80%	0%	90%	70%	50%	30%	0%
CCc1ccc(-c2ccc(Cl)c(Cl)c2)cc1C1=C(O)[C@]2(C)O[C@@H](CC2COC)C1=O (some centres unmarked) [Compound A-130]	100%	40%	100%	40%	0%	90%	20%	40%	20%	0%
CCc1ccc(-c2ccc(Cl)c(Cl)c2)cc1C1=C(O)[C@H]2CC[C@H](O2)C1=O [Compound A-132]	90%	30%	70%	20%	0%	0%	0%	0%	0%	0%
CCc1ccc(-c2ccc(Cl)cc2Cl)cc1C1=C(O)[C@]2(C)O[C@@H](CC2COC)C1=O (some centres unmarked) [Compound A-133]	100%	80%	100%	20%	70%	80%	70%	0%	10%	0%
CCc1ccc(-c2ccc(Cl)c(OC)c2)cc1C1=C(O)C(C)(C)OC(C)(C)C1=O [Compound A-135]	100%	100%	100%	100%	0%	100%	100%	100%	80%	0%
CCc1ccc(-c2ccc(Cl)c([N+](=O)[O-])c2)cc1C1=C(O)C(C)(C)OC(C)(C)C1=O [Compound A-136]	70%	100%	100%	80%	0%	30%	80%	90%	20%	0%
CCc1ccc(-c2ccc(Cl)c(Cl)c2Cl)cc1C1=C(O)C(C)(C)OC(C)(C)C1=O [Compound A-137]	100%	90%	100%	90%	30%	100%	90%	100%	70%	0%
CCc1ccc(-c2ccc(Cl)c(F)c2Cl)cc1C1=C(O)C(C)(C)OC(C)(C)C1=O [Compound A-138]	100%	100%	100%	100%	60%	100%	90%	100%	90%	20%
CCc1ccc(-c2cc(Cl)c(Cl)c(Cl)c2)cc1C1=C(O)C(C)(C)OC(C)(C)C1=O [Compound A-139]	80%	50%	100%	30%	50%	70%	0%	30%	0%	0%
